Data as given in US12275706B2, “Malate salt of N-(4-{[6,7-bis(methyloxy) quinolin-4-yl]oxy}phenyl)-N′-(4-fluorophenyl)cyclopropane-1,1-dicarboxamide, and crystalline forms thereof for the treatment of cancer” (Exelixis, Inc., priority 2009, dated 2025).

Assays:
[1] = Salt screen: salt formation, crystallinity, hygroscopicity and other data; details: Table 1
physchem = details: water, thermodynamic from solid
[2] = Water solubility of free base and salts (salt screen); details: for Solubility: water, 10 mg solids per mL water
[3] = Moisture sorption (water uptake); assay type: physicochemical
Experimental: (§1) The amount of water taken up was calculated at about 0.60 wt % at 90% RH. […] The amount of water associated with this salt was calculated at about 0.5 wt % by Karl Fischer analysis and correlates with TGA and GVS analysis.
Moisture sorption isotherms were collected in a VTI SGA-100 Symmetric Vapor Analyzer using approximately 10 mg of sample. The sample was dried at 60° C. until the loss rate of 0.0005 wt %/min was obtained for 10 minutes. The sample was tested at 25° C. and 3 or 4, 5, 15, 25, 35, 45, 50, 65, 75, 85, and 95% RH. Equilibration at each RH was reached when the rate of 0.0003 wt %/min for 35 minutes was achieved or a maximum of 600 minutes.

[4] = Karl Fischer water analysis; assay type: physicochemical; details: correlates with TGA and GVS
Experimental: as §1

[5] = Solid state stability on exposure to high humidity and temperature; assay type: physicochemical
Excerpt: Other solid state properties which may be used to characterize the crystalline N-1 forms of Compounds (I) and (II) are shown in the figures and discussed in the examples below.

[6] = DSC/TGA thermal stability; assay type: physicochemical
Experimental: as §1
The TGA measurements were performed in a TA Instruments™ model Q500 or 2950, employing an open pan setup. The sample (about 10-30 mg) was placed in a platinum pan previously tared. The weight of the sample was measured accurately and recorded to a thousand of a milligram by the instrument. The furnace was purged with nitrogen gas at 100mL/min. Data were collected between room temperature and 300° C. at 10° C./min heating rate.
DSC measurements were performed in a TA Instruments™ model Q2000, Q1000 or 2920, employing an open pan setup. The sample (about 2-6 mg) was weighed in an aluminum pan and recorded accurately recorded to a hundredth of a milligram, and transferred to the DSC. The instrument was purged with nitrogen gas at 50 mL/min. Data were collected between room temperature and 300° C. at 10° C./min heating rate. The plot was made with the endothermic peaks pointing down.

[7] = Storage stability at controlled temperature/relative humidity; assay type: physicochemical

**Q.** Which “other data relating to the free base and each salt (salt formation, crystallinity, hygroscopicity, remarks)” value [1] does the source give for Benzoate here?
**A.** no salt formation; mixture of free base and acid

**Q.** Which results are given for `COc1cc2nccc(Oc3ccc(NC(=O)C4(C(=O)Nc5ccc(F)cc5)CC4)cc3)c2cc1OC` [Free base, N-(4-{[6,7-bis(methyloxy)quinolin-4-yl]oxy}phenyl)-N′-(4-fluorophenyl)cyclopropane-1,1-dicarboxamide]?
**A.** other data relating to the free base and each salt (salt formation, crystallinity, hygroscopicity, remarks) [1]: very low solubility; Solubility (physchem): < 0.001 mg/mL

**Q.** For `O=S(=O)(O)O` [Sulfate], which “other data relating to the free base and each salt (salt formation, crystallinity, hygroscopicity, remarks)” value [1] is on record?
**A.** Crystalline salt, low solubility

**Q.** With `CC(=O)O` [Acetate] as the molecule, how does the “other data relating to the free base and each salt (salt formation, crystallinity, hygroscopicity, remarks)” value [1] read?
**A.** no salt formation; mixture of free base and acid

**Q.** Which “other data relating to the free base and each salt (salt formation, crystallinity, hygroscopicity, remarks)” value [1] does the source give for `C1=Cc2cccc(OC[C@H]3CNCCO3)c2C1.O=S(=O)(O)c1ccccc1` [Benzenesulfonate] here?
**A.** Crystalline Salt; possible sulfonic acid formation

**Q.** Which “other data relating to the free base and each salt (salt formation, crystallinity, hygroscopicity, remarks)” value [1] does the source give for Phosphate here?
**A.** Crystalline but Hygroscopic.

**Q.** What about the Solubility [2] of the same molecule?
**A.** 0.026 mg/mL

**Q.** And the “weight gain due to absorption of H2O” value ([3]; highest among the salts tested)?
**A.** 8%

**Q.** Which “other data relating to the free base and each salt (salt formation, crystallinity, hygroscopicity, remarks)” value [1] does the source give for Fumarate here?
**A.** Crystalline Salt, low solubility

**Q.** Which “other data relating to the free base and each salt (salt formation, crystallinity, hygroscopicity, remarks)” value [1] does the source give for Malonate here?
**A.** Crystalline salt, low solubility

**Q.** For Tosylate, which “other data relating to the free base and each salt (salt formation, crystallinity, hygroscopicity, remarks)” value [1] is on record?
**A.** Crystalline salt, low solubility

**Q.** What about the Solubility [2] of the same molecule?
**A.** 0.007 mg/mL

**Q.** For L-Lactate, which “other data relating to the free base and each salt (salt formation, crystallinity, hygroscopicity, remarks)” value [1] is on record?
**A.** Amorphous, salt

**Q.** For `COc1cc2nccc(Oc3ccc(NC(=O)C4(C(=O)Nc5ccc(F)cc5)CC4)cc3)c2cc1OC.O=C(O)C[C@H](O)C(=O)O` [Compound (I), N-(4-{[6,7-bis(methyloxy)quinolin-4-yl]oxy}phenyl)-N′-(4-fluorophenyl)cyclopropane-1,1-dicarboxamide, (L) Malate Salt], which “amount of water associated with the salt” value [4] is on record?
**A.** about 0.5 wt %

**Q.** What about the “solid state phase and degree of crystallinity” value ([5]; 75% RH at 40° C. for 1 week) of the same molecule?
**A.** remained unchanged

**Q.** What about the “solubility (in words)” value [2] of the same molecule?
**A.** sufficient solubility for use in a pharmaceutical composition

**Q.** What about the Solubility [2] of the same molecule?
**A.** 0.059 mg/mL

**Q.** What about the “solvent losses (DSC/TGA)” value [6] of the same molecule?
**A.** No solvent losses were observed

**Q.** And the “stable up to (DSC/TGA)” value [6]?
**A.** up to 185 °C

**Q.** What about the “uptake of water, reversibility” value [3] of the same molecule?
**A.** reversible with a slight hysteresis

**Q.** What about the “amount of water taken up” value ([3]; at 90% RH) of the same molecule?
**A.** about 0.60 wt %

**Q.** What about the “change in assay, purity, moisture and dissolution” value ([7]; 25° C./60% relative humidity (RH)) of the same molecule?
**A.** no change in assay, purity, moisture and dissolution

**Q.** And the “change in assay, purity, moisture and dissolution” value ([7]; 40° C./60% RH)?
**A.** no change in assay, purity, moisture and dissolution

**Q.** Which results are given for `Cl` [Chloride]?
**A.** moisture sensitivity, phase ([5]; high humidity (75% humidity) and high temperature (40° C.)): undesirable moisture sensitivity, changing phase; other data relating to the free base and each salt (salt formation, crystallinity, hygroscopicity, remarks) [1]: Crystalline but Hygroscopic; possible hydrate
